Values after ≈ are worked out from the molar mass of the structure shown.
Columns and labels:
Pichia kudriavzevii = assay: Antifungal activity against Pichia kudriavzevii ATCC 6258 after 48 hr by two-fold serial dilution method; format: functional; settings: ATCC 6258, 48 h
Candida albicans = assay: Antifungal activity against Candida albicans ATCC 10231 after 48 hr by two-fold serial dilution method; format: functional; settings: ATCC 10231, 48 h
Pseudomonas aeruginosa [1] = assay: Antibacterial activity against Pseudomonas aeruginosa cloinical isolate after 24 hr by two-fold serial dilution method; format: functional
Pseudomonas aeruginosa [2] = assay: Antibacterial activity against Pseudomonas aeruginosa ATCC 27853 after 24 hr by two-fold serial dilution method; format: functional; settings: ATCC 27853, 24 h
Escherichia coli [3] = assay: Antibacterial activity against Escherichia coli clinical isolate expressing extended spectrum beta-lactamase after 24 hr by two-fold serial dilution method; format: functional
Escherichia coli [4] = assay: Antibacterial activity against Escherichia coli ATCC 25922 after 24 hr by two-fold serial dilution method; format: functional; settings: ATCC 25922, 24 h
Enterococcus faecalis [5] = assay: Antibacterial activity against Enterococcus faecalis clinical isolate after 24 hr by two-fold serial dilution method; format: functional
Enterococcus faecalis [6] = assay: Antibacterial activity against Enterococcus faecalis ATCC 29212 after 24 hr by two-fold serial dilution method; format: functional; settings: ATCC 29212, 24 h
Staphylococcus aureus [7] = assay: Antibacterial activity against methicillin-resistant Staphylococcus aureus clinical isolate after 24 hr by two-fold serial dilution method; format: functional
Staphylococcus aureus [8] = assay: Antibacterial activity against Staphylococcus aureus ATCC 29213 after 24 hr by two-fold serial dilution method; format: functional; settings: ATCC 29213, 24 h
Mus musculus [9] = assay: Anti-inflammatory activity in Swiss albino Mus musculus (mouse) assessed as inhibition of carrageenan-induced paw edema at 100 mg/kg, po administered 60 min prior to crrageenan-challenge measured at 360 min relative to control; format: functional
Mus musculus [10] = assay: Anti-inflammatory activity in Swiss albino Mus musculus (mouse) assessed as inhibition of carrageenan-induced paw edema at 100 mg/kg, po administered 60 min prior to crrageenan-challenge measured at 270 min relative to control; format: functional
Mus musculus [11] = assay: Ulcerogenic activity in p-benzoquinone-challenged Swiss albino Mus musculus (mouse) at 100 mg/kg, po administered 60 min prior to p-benzoquinone-challenge by microscopic analysis; format: toxicity, organism-based; set-up: dose 100 mg/kg, route oral; settings: in vivo, 1 h
Mus musculus [12] = assay: Analgesic activity in Swiss albino Mus musculus (mouse) assessed as inhibition of p-benzoquinone-induced writhing at 100 mg/kg, po administered 60 min prior to p-benzoquinone-challenge measured up to 15 min relative to control; format: functional
Mus musculus [13] = assay: Anti-inflammatory activity in Swiss albino Mus musculus (mouse) assessed as inhibition of carrageenan-induced paw edema at 100 mg/kg, po administered 60 min prior to crrageenan-challenge measured at 180 min relative to control; format: functional
Mus musculus [14] = assay: Anti-inflammatory activity in Swiss albino Mus musculus (mouse) assessed as inhibition of carrageenan-induced paw edema at 100 mg/kg, po administered 60 min prior to crrageenan-challenge measured at 90 min relative to control; format: functional

SMILES	MIC (Pichia kudriavzevii) [µg/mL]	MIC (Candida albicans) [µg/mL]	MIC (Pseudomonas aeruginosa [1]) [µg/mL]	MIC (Pseudomonas aeruginosa [2]) [µg/mL]	MIC (Escherichia coli [3]) [µg/mL]	MIC (Escherichia coli [4]) [µg/mL]	MIC (Enterococcus faecalis [5]) [µg/mL]	MIC (Enterococcus faecalis [6]) [µg/mL]	MIC (Staphylococcus aureus [7]) [µg/mL]	MIC (Staphylococcus aureus [8]) [µg/mL]	inhibition in vivo at 100 mg/kg (Mus musculus [9]) [%]	inhibition in vivo at 100 mg/kg (Mus musculus [10]) [%]	Activity (Mus musculus [11])	inhibition in vivo at 100 mg/kg (Mus musculus [12]) [%]	inhibition in vivo at 100 mg/kg (Mus musculus [13]) [%]	inhibition in vivo at 100 mg/kg (Mus musculus [14]) [%]
O=c1ccc(-c2ccccc2)nn1CCN1CCN(c2ccccc2)CC1	32 (≈ 88.8 µM)	32 (≈ 88.8 µM)	64 (≈ 178 µM)	64 (≈ 178 µM)	64 (≈ 178 µM)	64 (≈ 178 µM)	64 (≈ 178 µM)	64 (≈ 178 µM)	128 (≈ 355 µM)	64 (≈ 178 µM)	3.1	6.4	Non-toxic	10.7		
O=c1ccc(-c2ccccc2)nn1CCN1CCN(c2ccc(Cl)cc2)CC1	32 (≈ 81 µM)	32 (≈ 81 µM)	64 (≈ 162 µM)	64 (≈ 162 µM)	64 (≈ 162 µM)	64 (≈ 162 µM)	64 (≈ 162 µM)	64 (≈ 162 µM)	128 (≈ 324 µM)	64 (≈ 162 µM)	12.1	14.8	Non-toxic	23.3	14.9	16.2
O=c1ccc(-c2ccccc2)nn1CCN1CCN(c2ccc(F)cc2)CC1	32 (≈ 84.6 µM)	32 (≈ 84.6 µM)	64 (≈ 169 µM)	64 (≈ 169 µM)	64 (≈ 169 µM)	64 (≈ 169 µM)	64 (≈ 169 µM)	64 (≈ 169 µM)	128 (≈ 338 µM)	64 (≈ 169 µM)	19.5	29.9	Non-toxic	16.8	26.3	10.6
COc1ccc(N2CCN(CCn3nc(-c4ccccc4)ccc3=O)CC2)cc1	32 (≈ 81.9 µM)	32 (≈ 81.9 µM)	64 (≈ 164 µM)	64 (≈ 164 µM)	64 (≈ 164 µM)	64 (≈ 164 µM)	64 (≈ 164 µM)	64 (≈ 164 µM)	128 (≈ 328 µM)	64 (≈ 164 µM)			Non-toxic	8.6		
COc1ccc(-c2ccc(=O)n(CCN3CCN(c4ccccc4)CC3)n2)cc1	32 (≈ 81.9 µM)	32 (≈ 81.9 µM)	64 (≈ 164 µM)	64 (≈ 164 µM)	64 (≈ 164 µM)	64 (≈ 164 µM)	64 (≈ 164 µM)	64 (≈ 164 µM)	128 (≈ 328 µM)	64 (≈ 164 µM)			Non-toxic	18.4	12.6	11.9
COc1ccc(-c2ccc(=O)n(CCN3CCN(c4ccc(Cl)cc4)CC3)n2)cc1	32 (≈ 75.3 µM)	32 (≈ 75.3 µM)	64 (≈ 151 µM)	64 (≈ 151 µM)	64 (≈ 151 µM)	64 (≈ 151 µM)	64 (≈ 151 µM)	64 (≈ 151 µM)	128 (≈ 301 µM)	64 (≈ 151 µM)	26.2	27.5	Toxic	44.4	19.8	16.9
COc1ccc(-c2ccc(=O)n(CCN3CCN(c4ccc(F)cc4)CC3)n2)cc1	32 (≈ 78.3 µM)	32 (≈ 78.3 µM)	64 (≈ 157 µM)	64 (≈ 157 µM)	64 (≈ 157 µM)	64 (≈ 157 µM)	64 (≈ 157 µM)	64 (≈ 157 µM)	128 (≈ 313 µM)	64 (≈ 157 µM)	18.3	22.9	Toxic	47.6	15.5	16.2
COc1ccc(-c2ccc(=O)n(CCN3CCN(c4ccc(OC)cc4)CC3)n2)cc1	32 (≈ 76.1 µM)	32 (≈ 76.1 µM)	64 (≈ 152 µM)	64 (≈ 152 µM)	64 (≈ 152 µM)	64 (≈ 152 µM)	64 (≈ 152 µM)	64 (≈ 152 µM)	128 (≈ 304 µM)	64 (≈ 152 µM)	7.9	13.6	Non-toxic	5.6		
O=c1ccc(-c2ccc(Cl)cc2)nn1CCN1CCN(c2ccccc2)CC1	32 (≈ 81 µM)	32 (≈ 81 µM)	64 (≈ 162 µM)	64 (≈ 162 µM)	64 (≈ 162 µM)	64 (≈ 162 µM)	64 (≈ 162 µM)	64 (≈ 162 µM)	128 (≈ 324 µM)	64 (≈ 162 µM)		7.4	Non-toxic	20.1	1.4	

Source: ChEMBL document CHEMBL3045332, “Synthesis of some new 2,6-disubstituted-3(2H)-pyridazinone derivatives and investigation of their analgesic, anti-inflammatory and antimicrobial activities” (Med Chem Res, 2013)
